The record followed here is ChEMBL document CHEMBL1201862, “PubChem BioAssay data set” (2004).

Common to all, as to assay: NCI tumour cell line growth inhibition, 48 h
In assay [1] the test system is HCT-15.
For assay [2], the system named is NCI-H522.
In assay [3] the test system is RPMI-8226.
Assay [4] concerns PC-3.
For assay [5], the system named is OVCAR-8.
Assay [6] concerns MDA-MB-435.
Assay [7] concerns UACC-257.
The test system of assay [8] is NCI-H23.
Assay [9] relates to K562.
Assay [10] has as its system TK-10.
Assay [11] concerns IGROV-1.
Assay [12] deals with CCRF-CEM.
Assay [13] deals with SK-MEL-2.
In assay [14] the test system is NCI-H460.
The subject of assay [15] is SF-295.
The subject of assay [16] is HL-60.
In assay [17] the test system is NCI/ADR-RES.
Assay [18] deals with HOP-92.
Assay [19] concerns LOX IMVI.
Assay [20] deals with SNB-19.

Structures are written as SMILES.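 Briefly, cells in 96-well plates were exposed to five compound concentrations for 48 h, and endpoints were estimated by linear interpolation. GI50 marks 50% less growth.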 Activity calls are given as the source filed them. Rule as the data show it: active = GI50 up to about 1.1 µM and inactive = higher. Non-standard residues stand in square brackets, D forms with d. Residues, ends and D or L forms follow the SMILES beside them. ξ: configuration not given here. Pentanoyl(2-O,4-OH,5-Cl) = O=C(O)C(O)CC(O)CCl; Ile(3ξ) = CCC(C)[C@H](N)C(=O)O; NMeV = CN[C@H](C(=O)O)C(C)C; NMeA = CN[C@@H](C)C(=O)O; βAla = NCCC(=O)O

Consider `O/N=C1\CSc2ccccc2C1`, for which the GI50 in assay [1] was above 100 µM; in assay [2], > 100 µM (inactive); in assay [3], > 100 µM (inactive); in assay [4] it was > 100 µM (inactive); in assay [5], > 100 µM (inactive); in assay [6], > 100 µM (inactive). Moreover, the GI50 in [7], in assay [8], in assay [9], in assay [10], in assay [11] and in assay [12] was > 100 µM (inactive) each time. In addition, the GI50 in [13] was > 100 µM (inactive); in assay [14] it was > 100 µM (inactive); in [15] it was > 100 µM (inactive); in assay [16], 5.33 µM (inactive); in assay [17], > 100 µM (inactive); in [18] it was 59.4 µM (inactive). For the same compound, the GI50 in [19] and in [20] was > 100 µM (inactive) each time.
Take `O=C(Nc1ccccc1)OCCN=C1c2ccccc2C(Br)C(Br)c2ccccc21` (centres undefined): the GI50 in [1] was 3.85 µM; in assay [2], 5.37 µM (inactive); in assay [3], 4.37 µM (inactive); in assay [4], 19.3 µM (inactive); in assay [5], 4.09 µM (inactive); in assay [6] it was 7.93 µM (inactive). Besides, the GI50 in assay [7] was 6.59 µM (inactive); in assay [8], 10.4 µM (inactive); in [9], 2.8 µM (inactive); in [10], 4.48 µM (inactive); in assay [11], 6.52 µM (inactive); in assay [12], 1.49 µM (inactive). In addition, the GI50 in assay [13] was 22.2 µM (inactive); in assay [14] it was 12.1 µM (inactive); in [15], 17.1 µM (inactive); in assay [16] it was 1.92 µM (inactive); in assay [17] it was 11.7 µM (inactive); in assay [18] it was 8.81 µM (inactive). Also, the GI50 was 5.08 µM (inactive) in assay [19] and 14.9 µM (inactive) in assay [20].
For `N#CCCC(CCC#N)(CCC#N)NO`, the GI50 is above 100 µM in [1]; 0.013 µM (active) in [2]; > 100 µM (inactive) in assay [3]; > 100 µM (inactive) in assay [4]; > 100 µM (inactive) in assay [5]; > 100 µM (inactive) in assay [6]. For the same compound, the GI50 in assay [7], in assay [8], in assay [9], in [10], in assay [11] and in assay [13] was > 100 µM (inactive) each time. Also, the GI50 in assay [14], in assay [15], in assay [16], in assay [17], in assay [18] and in [20] was > 100 µM (inactive) throughout.
As to `O=C/C(=C1/C=Cc2cc([N+](=O)[O-])ccc2S1)c1ccccc1`, the GI50 in assay [1] was above 100 µM; in [2], > 100 µM (inactive); in assay [3], > 100 µM (inactive); in assay [4] it was > 100 µM (inactive); in assay [6], > 100 µM (inactive); in assay [7] it was > 100 µM (inactive). Besides, the GI50 in [8], in assay [9], in assay [10], in [11], in assay [12] and in [13] was > 100 µM (inactive) in each case. The GI50 in assay [14], in [15], in assay [16], in assay [17], in [18] and in assay [19] was > 100 µM (inactive) in each case. Besides, the GI50 in assay [20] is > 100 µM (inactive).
Turning to `C[C@]12CC/C(=N\O)C=C1CC[C@@H]1[C@@H]2CC[C@]2(C)C(=N/O)/C(=C/c3cccnc3)C[C@@H]12`, the GI50 was 5.9 µM in assay [1]; 12.1 µM (inactive) in [2]; 1.74 µM (inactive) in [3]; 6.95 µM (inactive) in [4]; 15.4 µM (inactive) in assay [5]; 15.9 µM (inactive) in [6]. Further, the GI50 in assay [7] is 17.9 µM (inactive); in assay [8], 32.6 µM (inactive); in [9], 6.98 µM (inactive); in [10], 15.1 µM (inactive); in assay [11] it was 30.4 µM (inactive); in assay [12], 7.38 µM (inactive). Further, the GI50 in assay [13] is 19.8 µM (inactive); in assay [14] it was 3.46 µM (inactive); in assay [15], 6.95 µM (inactive); in assay [16], 0.338 µM (active); in assay [17] it was 14.3 µM (inactive); in assay [18], 12.8 µM (inactive). Also, the results for the GI50 in assay [19] and in assay [20] were 4.76 µM (inactive) and 23.4 µM (inactive), respectively.
Take `CC(=O)OC1(C)C=CC(=O)C=C1`: the GI50 was 18 µM in [1]; 10.8 µM (inactive) in assay [2]; 37.3 µM (inactive) in assay [3]; 27.4 µM (inactive) in assay [4]; 24.7 µM (inactive) in assay [5]; 29.9 µM (inactive) in assay [6]. The GI50 was 17.1 µM (inactive) in assay [7]; 27.5 µM (inactive) in assay [8]; 50.8 µM (inactive) in [9]; 22.5 µM (inactive) in assay [10]; 12.9 µM (inactive) in [11]; 44.1 µM (inactive) in assay [12]. Also, the GI50 in assay [13] was 28.2 µM (inactive); in assay [14], 25.9 µM (inactive); in assay [15], 37.2 µM (inactive); in [16] it was 27.9 µM (inactive); in [17], 6.3 µM (inactive); in assay [18], 39 µM (inactive). Moreover, the GI50 was 32.6 µM (inactive) in assay [19] and 48.2 µM (inactive) in assay [20].
Turning to `CC1=NN(C(=O)c2ccccc2O)C(=O)/C1=C/c1c(O)ccc2ccccc12`, the GI50 is 0.48 µM in assay [1]; 0.839 µM (active) in assay [2]; 1.46 µM (inactive) in [3]; 2.03 µM (inactive) in [4]; 1.01 µM (active) in assay [5]; 4.94 µM (inactive) in [6]. In addition, the GI50 in [7] is 2.47 µM (inactive); in assay [8], 1.43 µM (inactive); in [9], 1.73 µM (inactive); in assay [10], 8.87 µM (inactive); in [11], 1.22 µM (inactive); in assay [12] it was 0.312 µM (active). For the same compound, the GI50 was 1.14 µM (inactive) in assay [13]; 0.676 µM (active) in assay [14]; 2.23 µM (inactive) in [15]; 0.299 µM (active) in assay [16]; 1.34 µM (inactive) in assay [17]; 1.96 µM (inactive) in assay [18]. For the same compound, the GI50 is 0.625 µM (active) in assay [19] and 3.26 µM (inactive) in [20].
Turning to `O=[N+]([O-])c1cccc2nccc(NCC(O)CO)c12` (centres undefined), the GI50 is 8.85 µM in [1]; 7.01 µM (inactive) in [2]; 12.7 µM (inactive) in assay [3]; 16.5 µM (inactive) in assay [4]; 11.6 µM (inactive) in assay [5]; 16.6 µM (inactive) in [6]. For the same compound, the GI50 in [7] is 15.2 µM (inactive); in assay [8] it was 16 µM (inactive); in assay [9], 20.2 µM (inactive); in assay [10], 18 µM (inactive); in [11], 16.1 µM (inactive); in assay [12], 13.3 µM (inactive). In addition, the GI50 in [13] is 11.4 µM (inactive); in assay [14], 8.18 µM (inactive); in assay [15] it was 21 µM (inactive); in assay [16] it was 1.36 µM (inactive); in assay [17], 25.5 µM (inactive); in assay [18], 20.6 µM (inactive). Moreover, the GI50 in assay [19] was 21.7 µM (inactive).
On to `CCOC(=O)C(=Cn1c(=S)[nH]c2ccc([N+](=O)[O-])cc21)C(=O)OCC`, for which the GI50 in [2], in assay [3], in [4], in assay [5], in assay [6] and in [7] was > 100 µM (inactive) throughout. Besides, the GI50 in [8], in assay [9], in assay [10], in [11], in [12] and in assay [13] was > 100 µM (inactive) each time. The GI50 in assay [14], in assay [15], in assay [16], in [17], in assay [18] and in assay [19] was > 100 µM (inactive) throughout. Also, in [20], the GI50 is > 100 µM (inactive).
On to `CCC(C)[C@@H]1NC(=O)[C@@H]2CCCN2C(=O)C(CC(O)CCl)OC(=O)CCNC(=O)[C@H](C)N(C)C(=O)[C@H](C(C)C)N(C)C1=O` (some centres undefined) (cyclo([Ile(3ξ)][NMeV][NMeA][βAla][Pentanoyl(2-O,4-OH,5-Cl)]P)), for which the GI50 in assay [1] is above 80.2 µM; in assay [2], 2.36 µM (inactive); in assay [3], 0.247 µM (active); in assay [4], 74.6 µM (inactive); in assay [5], > 100 µM (inactive); in [6], > 100 µM (inactive). Further, the GI50 in assay [7] is 2.46 µM (inactive); in assay [8], > 100 µM (inactive); in assay [9], > 45.1 µM (inactive); in assay [10], > 100 µM (inactive); in assay [11], > 100 µM (inactive); in assay [12], 0.483 µM (active). The GI50 in assay [13] is 0.347 µM (active); in [14], > 31.4 µM (inactive); in assay [15], 2.31 µM (inactive); in [16], 44.1 µM (inactive); in [17] it was > 100 µM (inactive); in [18], 1.09 µM (active). Besides, the GI50 in assay [20] is > 100 µM (inactive).
